What was measured:
[1] = tested on: nitric oxide (nitrite); experiment: LPS-stimulated J774 macrophages: nitric oxide production measured as nitrite; type: cell-based
Description: (§1) In in vitro studies, J774 macrophages were exposed to bacterial lipopolysaccharide (LPS), to induce pro-inflammatory mediator production and cytotoxicity. […] This assay (the LPS-stimulated macrophage) represents an in vitro model of an inflammatory situation. Agents that block inflammatory mediator production in this assay are expected to have anti-inflammatory or immunosuppressive effects in inflammatory or immune diseases.
(§2) The half-maximal inhibitory effect (in μM) of various PJ compounds was assessed under a variety of conditions in immunostimulated J774 macrophages and in peroxynitrite-stimulated thymocytes. Macrophages or thymocytes were first treated with a chosen PJ compound for 30 min at a concentration ranging from 0.1 to 30 μM. The cells were then immunostimulated with LPS (10 μg/ml) or treated with peroxynitrite (30 μM). MIP production in the macrophages was measured at 3 h, TNF and nitric oxide were measured at 24 h, cell viability in the macrophages were measured at 24 h. PARS activation and cell death in thymocytes were measured at 6 h. Measurements of mediator production, PARS activation and cell death were essentially as described in Németh, et al., Eur J Pharmacol 339:215-221, 1997 and Virág and Szabó, Br J Pharmacol, 126: 769-777, 1999. Results in Table 2 are shown as EC50 values (half maximal inhibition of mediator production or restoration of cell viability; in μM): [mean±SEM of n=3-6 determinations].

[2] = tested on: mouse; experiment: Ischemic and reperfused gut (superior mesenteric artery occlusion); settings: gut ischemia-reperfusion; 38% mortality without treatment
Description: In another model, a mouse model of ischemic and reperfused gut was utilized.

[3] = tested on: TNF-α; experiment: LPS-stimulated J774 macrophages: TNF-α production; type: cell-based
Description: as §1, §2

[4] = tested on: MIP-1α; experiment: LPS-stimulated J774 macrophages: MIP-1α production; type: cell-based
Description: as §1, §2

[5] = tested on: Balb/c mice; experiment: LPS-induced mortality (systemic inflammatory model); settings: LPS 90 mg/kg intraperitoneally; pretreatment 20 mg/kg; over 24 h; 92% death without treatment
Description: In order to substantiate the efficacy of the PJ series of compounds in inflammatory conditions, the effect of compounds according to the invention were tested in a systemic inflammatory model induced by bacterial lipopolysaccharide.

[6] = tested on: Lewis rats; experiment: Heterotopic heart transplantation: coronary blood flow and myocardial performance; type: in vivo, rat; settings: 3 mg/kg i.v.
[7] = tested on: thoracic aortic rings from wild-type mice; experiment: High glucose induced endothelial dysfunction in isolated thoracic aortic rings; set-up: species or system mouse; settings: 30 mM glucose 16 hours; co-incubation with PJ34 1 μM
Description: Breeding pairs of mice for the PARS colony were a gift from Dr. Z. Q. Wang, International Agency for Research on Cancer Lyon, France. Thoracic aortae from PARS^−/− and PARS^+/+ mice (Wang et al., Genes Dev.9: 509-520, 1995) were harvested, cleared of periadvential fat, and cut into 3 or 4 pieces. […] Four different media preparations were used: a) normal glucose, i.e. 5 mM: in F-12K Nutrient Mixture medium (Gibco BRL—Life Technologies); b) Osmotic control, i.e. 30 mM L-glucose in F-12K medium; c) High glucose i.e. 30 mM D-glucose in F-12K medium; […].
After incubation, aortic rings were mounted in organ baths filled with warmed and gas equilibrated Krebs' solution and endothelium dependent relaxant ability was evaluated as described above.

[8] = tested on: anesthetized rat; experiment: Coronary artery ligation and release (myocardial reperfusion injury) in anesthetized rat; type: in vivo; set-up: dose or concentration left out as unconfirmed; settings: 1-hour coronary ischemia, 1 hour reperfusion, i.v. 10 min prior to reperfusion
[9] = tested on: MIP-2; experiment: LPS-stimulated J774 macrophages: MIP-2 production; type: cell-based
Description: as §1, §2

[10] = tested on: cultured neurons; settings: oxygen/glucose deprivation; concentration range 10 nM-1 μM
Description: A second experimental system was used where oxygen/glucose deprivation induced cell death in cultured neurons (i.e. an in vitro model of stroke).

[11] = tested on: SJL/PLJ mice; experiment: Experimental allergic encephalomyelitis (EAE) induced by MBP immunization; type: in vivo, mouse
Description: The studies were performed according to standard methods. See, e.g., Hooper et al., Proc Natl Acad Sci U S A 95:675-680, 1998. Briefly, EAE was caused by immunization of 8-10 week old female SJL/PLJ mice with MBP (in complete Freund's adjuvant containing 0.05% M Butyricum plus an additional 4 mg/ml Mycobacterium Tuberculosis H37 RA, one […] subcutaneous dose plus 2 doses of 400 ng pertussis toxin, intra-peritoneal, on days 0 and 2). The grading system shown in Table 5 was used to evaluate the severity of the disease.

[12] = tested on: thymocytes; experiment: Peroxynitrite-stimulated thymocytes: cell viability; type: cell-based
Description: as §2

[13] = J774 macrophages exposed to LPS
[14] = 10 mg/kg orally 2 times daily from day 10

Structure (SMILES): CN(C)CC(=O)Nc1ccc2[nH]c(=O)c3ccccc3c2c1 [PJ34, N-(6-oxo-5,6-dihydro-phenanthridin-2-yl)-N,N-dimethylacetamide]
- production of nitric oxide, measured as nitrite (in words) [1, 13]: inhibited
- EC50 ([1]; Mus musculus, J774, LPS 10 μg/ml, 30 min pretreatment 0.1 to 30 μM, measured at 24 h, mean±SEM n=3-6, read-out: Inhibition of Nitrite (J774)): 15.2 ± 2.8 µM
- survival [2]: 100%
- production of the pro-inflammatory cytokine TNF-α (in words) [3, 13]: inhibited
- EC50 ([3]; Mus musculus, J774, LPS 10 μg/ml, 30 min pretreatment 0.1 to 30 μM, measured at 24 h, mean±SEM n=3-6, read-out: Inhibition of TNF-α (J774)): 5.4 ± 0.6 µM
- production of the chemokine MIP-1α (in words) [4, 13]: inhibited
- EC50 ([4]; Mus musculus, J774, LPS 10 μg/ml, 30 min pretreatment 0.1 to 30 μM, measured at 3 h, mean±SEM n=3-6, read-out: Inhibition of MIP-1α (J774)): 10.2 ± 1.4 µM
- endotoxin-induced mortality [5]: 50%
- myocardial performance (in words) ([6]; data not shown): markedly enhanced
- Basal coronary bloodflow ([6]; 1 h after transplant, vehicle 2.8 ± 0.3): 4.1 ± 0.4 mL/min
- Acetylcholine stimulated coronary bloodflow ([6]; 1 h after transplant, vehicle 3.5 ± 0.3): 6.5 ± 0.5 mL/min
- Basal coronary bloodflow ([6]; 24 h after transplant, vehicle 3.9 ± 0.3): 4.2 ± 0.2 mL/min
- Acetylcholine stimulated coronary bloodflow ([6]; 24 h after transplant, vehicle 6.1 ± 0.4): 8.2 ± 0.8 mL/min
- impairment in endothelium-dependent relaxation by high glucose [7]: prevented
- reduction of plasma levels of creatine phosphokinase (CPK) [8]: approx. 50%
- myocardial infarct size (area of necrosis, over area of risk) ([8]; 62±1 without treatment): 50±3%
- production of the chemokine MIP-2 (in words) [9, 13]: inhibited
- EC50 ([9]; Mus musculus, J774, LPS 10 μg/ml, 30 min pretreatment 0.1 to 30 μM, measured at 3 h, mean±SEM n=3-6, read-out: Inhibition of MIP-2 (J774)): 7.2 ± 0.88 µM
- cytoprotection [10]: up to 70%
- mortality in EAE (in words) [11, 14]: significant reduction
- severity of EAE (in words) [11, 14]: significant reduction
- Percent mortality ([11]; Day 10 after immunization, 10 mg/kg orally 2 times daily from day 10): 0%
- Average Disease severity index ([11]; Day 10 after immunization, 10 mg/kg orally 2 times daily from day 10, grading Table 5): 0
- Average Disease severity index ([11]; Day 11): 0
- Percent mortality ([11]; Day 11): 0%
- Average Disease severity index ([11]; Day 12): 0
- Percent mortality ([11]; Day 12): 0%
- Average Disease severity index ([11]; Day 13): 0
- Percent mortality ([11]; Day 13): 0%
- Average Disease severity index ([11]; Day 14): 0
- Percent mortality ([11]; Day 14): 0%
- Average Disease severity index ([11]; Day 15): 0
- Percent mortality ([11]; Day 15): 0%
- Average Disease severity index ([11]; Day 16): 4
- Percent mortality ([11]; Day 16): 0%
- Average Disease severity index ([11]; Day 17): 4
- Percent mortality ([11]; Day 17): 0%
- Average Disease severity index ([11]; Day 18): 4
- Percent mortality ([11]; Day 18): 0%
- Average Disease severity index ([11]; Day 19): 4
- Percent mortality ([11]; Day 19): 0%
- Average Disease severity index ([11]; Day 20): 3
- Percent mortality ([11]; Day 20): 0%
- EC50 ([12]; Thymocyte, peroxynitrite 30 μM, 30 min pretreatment 0.1 to 30 μM, measured at 6 h, mean±SEM n=3-6, read-out: Enhancement of cell viability (thymocyte)): 0.2 ± 0.1 µM
- oxidant-induced suppression of the viability of the cells (in words) ([12]; isolated thymocytes exposed to peroxynitrite or hydrogen peroxide): prevented

— patent US6531464B1, “Methods for the treatment of neurodegenerative disorders using substituted phenanthridinone derivatives” (Inotek Pharmaceutical Corporation, priority 1999, dated 2003)
